Laboratory results reported in patent US11542274B1, “Therapeutic compounds and methods of use thereof” (AGENCY FOR SCIENCE, TECHNOLOGY AND RESEARCH (A*STAR), priority 2019, dated 2023).

System: RAMOS cells (Burkitt's lymphoma cell line)
Assay: Anti-proliferation assay (CellTiter-Glo)
Assay type: cell-based
Conditions: 3 days
Procedure: In cell growth experiments, cells were seeded in 96-well cell culture plates at a density of 3000 of RAMOS cells/well in 100 μL of culture medium. 100 μL of the diluted solution containing the tested compound was added to the appropriate wells of the cell plate. After addition of the tested compound, the cells were incubated at 37° C. in an atmosphere of 5% CO2 for 3 days. CellTiter-Glo (CTG) reagent from the Promega CellTiter-Glo Luminescent Cell Viability Assay kit (#G7572) was added into an OptiPlate 96 (Perkin Elmer, White, Opaque, #6005299) in the dark, incubated for at least 2 hrs, and luminescence signal was read using Tecan Safire II Multi-Mode Plate Reader. The GI50 was calculated by nonlinear regression analysis using GraphPad Prism5 software.
GI50 is the concentration for 50% of maximal inhibition of cell proliferation.

GI50 | Compound
0.001 to 0.1 µM | (S)-2-(4-(4-chlorophenyl)-2,3,9-trimethyl-6H-thieno[3,2-f][1,2,4]triazolo[4,3-a][1,4]diazepin-6-yl)-N-(2-oxo-2-(4-(5-(2-oxoindolin-5-yl)pyridin-2-yl)piperazin-1-yl)ethyl)acetamide [Compound 122]

Same assay, conditions: Homo sapiens, 72 h, 3 days

Compound | GI50
Cc1sc2c(c1C)C(c1ccc(Cl)cc1)=N[C@@H](CC(=O)NCCCCCNc1cc(-c3ccc4c(c3)NC(=O)C4)ccn1)c1nnc(C)n1-2 [Compound 096, (S)-2-(4-(4-chlorophenyl)-2,3,9-trimethyl-6H-thieno[3,2-f][1,2,4]triazolo[4,3-a][1,4]diazepin-6-yl)-N-(5-((4-(2-oxoindolin-6-yl)pyridin-2-yl)amino)pentyl)acetamide] | 0.1 to 1 µM
Cc1sc2c(c1C)C(c1ccc(Cl)cc1)=N[C@@H](CC(=O)NCCOCCOCCOCCNc1ccc(C(=O)Nc3ccc4c(c3)CC(=O)N4)cn1)c1nnc(C)n1-2 [Compound 101, (S)-6-((1-(4-(4-chlorophenyl)-2,3,9-trimethyl-6H-thieno[3,2-f][1,2,4]triazolo[4,3-a][1,4]diazepin-6-yl)-2-oxo-6,9,12-trioxa-3-azatetradecan-14-yl)amino)-N-(2-oxoindolin-5-yl)nicotinamide] | 0.1 to 1 µM
Cc1sc2c(c1C)C(c1ccc(Cl)cc1)=N[C@@H](CC(=O)NC1CN(c3ccc(-c4ccc5c(c4)CC(=O)N5)cn3)C1)c1nnc(C)n1-2 [Compound 128, (S)-2-(4-(4-chlorophenyl)-2,3,9-trimethyl-6H-thieno[3,2-f][1,2,4]triazolo[4,3-a][1,4]diazepin-6-yl)-N-(1-(5-(2-oxoindolin-5-yl)pyridin-2-yl)azetidin-3-yl)acetamide] | 0.1 to 1 µM
Cc1sc2c(c1C)C(c1ccc(Cl)cc1)=N[C@@H](CC(=O)NC1CCN(c3ncccc3-c3ccc4c(c3)CC(=O)N4)CC1)c1nnc(C)n1-2 [Compound 136, (S)-2-(4-(4-chlorophenyl)-2,3,9-trimethyl-6H-thieno[3,2-f][1,2,4]triazolo[4,3-a][1,4]diazepin-6-yl)-N-(1-(3-(2-oxoindolin-5-yl)pyridin-2-yl)piperidin-4-yl)acetamide] | 0.001 to 0.1 µM
Cc1sc2c(c1C)C(c1ccc(Cl)cc1)=N[C@@H](CC(=O)NCC1CCN(c3ccc(-c4ccc5c(c4)CC(=O)N5)cn3)CC1)c1nnc(C)n1-2 [Compound 127, (S)-2-(4-(4-chlorophenyl)-2,3,9-trimethyl-6H-thieno[3,2-f][1,2,4]triazolo[4,3-a][1,4]diazepin-6-yl)-N-((1-(5-(2-oxoindolin-5-yl)pyridin-2-yl)piperidin-4-yl)methyl)acetamide] | 0.1 to 1 µM
Cc1sc2c(c1C)C(c1ccc(Cl)cc1)=N[C@@H](CC(=O)NCCOCCOCCOCCNc1ccc(-c3ccc4c(c3)CC(=O)N4)cn1)c1nnc(C)n1-2 [Compound 099, (S)-2-(4-(4-chlorophenyl)-2,3,9-trimethyl-6H-thieno[3,2-f][1,2,4]triazolo[4,3-a][1,4]diazepin-6-yl)-N-(2-(2-(2-(2-((5-(2-oxoindolin-5-yl)pyridin-2-yl)amino)ethoxy)ethoxy)ethoxy)ethyl)acetamide] | 0.001 to 0.1 µM
Cc1sc2c(c1C)C(c1ccc(Cl)cc1)=N[C@@H](CC(=O)NCCOCCOCCOCCNc1ccc(-c3ccc4c(c3)NC(=O)C4)cn1)c1nnc(C)n1-2 [Compound 100, (S)-2-(4-(4-chlorophenyl)-2,3,9-trimethyl-6H-thieno[3,2-f][1,2,4]triazolo[4,3-a][1,4]diazepin-6-yl)-N-(2-(2-(2-(2-((5-(2-oxoindolin-6-yl)pyridin-2-yl)amino)ethoxy)ethoxy)ethoxy)ethyl)acetamide] | 0.1 to 1 µM
Cc1sc2c(c1C)C(c1ccc(Cl)cc1)=N[C@@H](CC(=O)NCCOCCNc1ncccc1-c1ccc3c(c1)CC(=O)N3)c1nnc(C)n1-2 [Compound 135, (S)-2-(4-(4-chlorophenyl)-2,3,9-trimethyl-6H-thieno[3,2-f][1,2,4]triazolo[4,3-a][1,4]diazepin-6-yl)-N-(2-(2-((3-(2-oxoindolin-5-yl)pyridin-2-yl)amino)ethoxy)ethyl)acetamide] | 0.001 to 0.1 µM
Cc1sc2c(c1C)C(c1ccc(Cl)cc1)=N[C@@H](CC(=O)NC1CCN(c3ccc(-c4ccc5c(c4)CC(=O)N5)cn3)CC1)c1nnc(C)n1-2 [Compound 125, (S)-2-(4-(4-chlorophenyl)-2,3,9-trimethyl-6H-thieno[3,2-f][1,2,4]triazolo[4,3-a][1,4]diazepin-6-yl)-N-(1-(5-(2-oxoindolin-5-yl)pyridin-2-yl)piperidin-4-yl)acetamide] | 0.001 to 0.1 µM

Now from value to compound:

GI50 | Compound
0.1 to 1 µM | Cc1sc2c(c1C)C(c1ccc(Cl)cc1)=N[C@@H](CC(=O)N1CCC3(CCN(c4ncccc4-c4ccc5c(c4)CC(=O)N5)C3)C1)c1nnc(C)n1-2 (stereo partly shown) [Compound 137]
0.001 to 0.1 µM | Cc1sc2c(c1C)C(c1ccc(Cl)cc1)=N[C@@H](CC(=O)NC1CC3(C1)CC(Nc1ncccc1-c1ccc4c(c1)CC(=O)N4)C3)c1nnc(C)n1-2 (stereo partly drawn) [Compound 138, (S)-2-(4-(4-chlorophenyl)-2,3,9-trimethyl-6H-thieno[3,2-f][1,2,4]triazolo[4,3-a][1,4]diazepin-6-yl)-N-(6-((3-(2-oxoindolin-5-yl)pyridin-2-yl)amino)spiro[3.3]heptan-2-yl)acetamide]
0.001 to 0.1 µM | Cc1sc2c(c1C)C(c1ccc(Cl)cc1)=N[C@@H](CC(=O)NCCOCCOCCOCCC(=O)NC1CCN(C(=O)c3ccc4c(c3)CC(=O)N4)CC1)c1nnc(C)n1-2 [Compound 109, (S)-3-(2-(2-(2-(2-(4-(4-chlorophenyl)-2,3,9-trimethyl-6H-thieno[3,2-f][1,2,4]triazolo[4,3-a][1,4]diazepin-6-yl)acetamido)ethoxy)ethoxy)ethoxy)-N-(1-(2-oxoindoline-5-carbonyl)piperidin-4-yl)propanamide]
0.001 to 0.1 µM | Cc1sc2c(c1C)C(c1ccc(Cl)cc1)=N[C@@H](CC(=O)Nc1ccc(OCCOCCOCCOCCOCCNc3ccc(-c4ccc5c(c4)CC(=O)N5)cn3)cc1)c1nnc(C)n1-2 [Compound 131, (S)-2-(4-(4-chlorophenyl)-2,3,9-trimethyl-6H-thieno[3,2-f][1,2,4]triazolo[4,3-a][1,4]diazepin-6-yl)-N-(4-((14-((5-(2-oxoindolin-5-yl)pyridin-2-yl)amino)-3,6,9,12-tetraoxatetradecyl)oxy)phenyl)acetamide]
0.1 to 1 µM | Cc1sc2c(c1C)C(c1ccc(Cl)cc1)=N[C@@H](CC(=O)NCCOCCOCCOCCNc1ncccc1-c1ccc3c(c1)NC(=O)C3)c1nnc(C)n1-2 [Compound 108, (S)-2-(4-(4-chlorophenyl)-2,3,9-trimethyl-6H-thieno[3,2-f][1,2,4]triazolo[4,3-a][1,4]diazepin-6-yl)-N-(2-(2-(2-(2-((3-(2-oxoindolin-6-yl)pyridin-2-yl)amino)ethoxy)ethoxy)ethoxy)ethyl)acetamide]
0.001 to 0.1 µM | Cc1sc2c(c1C)C(c1ccc(Cl)cc1)=N[C@@H](CC(=O)Nc1ccc(OCCOCCNC(=O)c3cccc(-c4ccc5c(c4)CC(=O)N5)c3)cc1)c1nnc(C)n1-2 [Compound 106, (S)—N-(2-(2-(4-(2-(4-(4-chlorophenyl)-2,3,9-trimethyl-6H-thieno[3,2-f][1,2,4]triazolo[4,3-a][1,4]diazepin-6-yl)acetamido)phenoxy)ethoxy)ethyl)-3-(2-oxoindolin-5-yl)benzamide]
